# Test: dye/drug loading of halloysite micro-tubes (TGA)
# Assay type: physicochemical
# Details: SDS-hydrophobized halloysite lumen
# Protocol: One example method of loading the micro-tubes with a (substantially) water soluble hair dye agent uses the dye Indigo carmine. The Indigo carmine dye is dissolved in 1 mL of DI water at a ratio of 4% by weight (i.e., 40 mg of dye) under sonication. 40 mg of halloysite is added to the dispersion and sonicated until a homogeneous dispersion is obtained. The dispersion is place under a low vacuum (e.g., at approximately 1 psi or less) for three cycles, one hour for each cycle. The halloysite is then thoroughly washed with DI water five time by centrifuging at 10,600 rcf for three minutes. The washed halloysite was then dried in a hot air oven at 60° C. This procedure produced a 6 to 8 weight percent dye loading efficiency, i.e., weight of dye with respect to the weight of clay micro-tubes. However, different procedures may be used and generally it is desirable to generate micro-tubes loaded to about 5 to 10 weight percent dye loading efficiency, but in other embodiments, the loading efficiency could be between 2 to 35 weight percent (or any sub-range in between, with one specific example being 2% to 15%).
# One example method of loading the micro-tubes with a (substantially) water insoluble hair dye agent uses the dye Lawsone. It is preferable to modify the halloysite lumen surface to allow more ready binding of nonpolar molecules. […]
smiles,measurement,value
"CC1(C)C(C=C(Cl)Cl)C1C(=O)OCc1cccc(Oc2ccccc2)c1 (stereo not shown) [permethrin, Permethrin]",content in loaded nanotubes (TGA analysis),3-5 wt. %
